This is an account of results in patent US20210188843A1, “QUINOLINE COMPOUNDS AND THEIR PREPARATION AND USE AS ANTIMALARIAL AGENTS” (The United States of America,as represented by the …, priority 2018, published 2021).

Molecules are shown by their SMILES. In brackets after ≈: the same amount, converted by molar mass.

Series [1] in a line: Microsomal stability (rat). The class given is in vitro ADME. To be noted: rat microsomes, Table 1, read-out: Microsomal Stability (rat) T1/2.
A short description of the next series: PAMPA permeability. The class given is in vitro ADME. To be noted: Table 1.
For series [2], the system named is Asexual parasites of P. falciparum strain 3D7. Description: In vitro drug activity on asexual parasites (SYBR Green assay). The class given is cell-based. To be noted: Plasmodium falciparum; Table 1; P. falciparum 3D7 asexual stage, 72 h; read-out: Asexual EC50. A digest of the protocol:
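Growth was measured by SYBR Green I fluorescence (excitation 490 nm, emission 520 nm) after freeze-thaw lysis and 30 min staining at room temperature. Parasites (0.5% parasitemia, 2% hematocrit) had been incubated 72 h with compound, DMSO below 0.5%. Conditions were run in duplicate with no-drug and RBC-alone controls.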

Another series is described as follows: Solubility pH 7.4. The class given is physicochemical. The conditions noted are these: aqueous buffer, Table 1.

Take `COc1ccc(-c2ccc3ncc4c(c3c2)n(-c2cc(C#N)ccc2C)c(=N)n4C)cc1OC` [Compound 41, 3-(8-(3,4-dimethoxyphenyl)-2-imino-3-methyl-2,3-dihydro-1H-imidazo[4,5-c]quinolin-1-yl)-4-methylbenzonitrile]: the half-life in series [1] is above 30 min. Also, in “PAMPA permeability”, the Papp worked out at 988 ×10⁻⁶ cm/s. Moreover, the half-maximal effective concentration (EC50) in series [2] was found to be 46.2 nM. The solubility in “Solubility pH 7.4” is above 44 µg/mL.

As to `Cc1ccc(C#N)cc1-n1c(=N)n(C)c2cnc3ccc(-c4ccc(Cl)c(Cl)c4)cc3c21` [Compound 42, 3-(8-(3,4-dichlorophenyl)-2-imino-3-methyl-2,3-dihydro-1H-imidazo[4,5-c]quinolin-1-yl)-4-methylbenzonitrile], in series [1], the half-life is above 30 min. The Papp in the series “PAMPA permeability” stood at 1650 ×10⁻⁶ cm/s. Moreover, the concentration for a half-maximal effect (EC50) in series [2] stood at 574 nM. For the same compound, the solubility in “Solubility pH 7.4” was below 1 µg/mL.

For `Cc1ccc(C#N)cc1-n1c(=N)n(C)c2cnc3ccc(-c4ccc(F)c(F)c4)cc3c21` [Compound 43, 3-(8-(3,4-difluorophenyl)-2-imino-3-methyl-2,3-dihydro-1H-imidazo[4,5-c]quinolin-1-yl)-4-methylbenzonitrile], in series [1], the half-life is above 30 min. This compound also had an apparent permeability coefficient (Papp) in “PAMPA permeability” of 837 ×10⁻⁶ cm/s. Further, the EC50 in series [2] worked out at 118 nM. The concentration in solution in “Solubility pH 7.4” (solubility) was 8.3 µg/mL (≈ 19.5 µM).

As for `Cc1ccc(C#N)cc1-n1c(=N)n(C)c2cnc3ccc(-c4ccc(Cl)cn4)cc3c21` [Compound 44, 3-(8-(5-chloropyridin-2-yl)-2-imino-3-methyl-2,3-dihydro-1H-imidazo[4,5-c]quinolin-1-yl)-4-methylbenzonitrile], the half-life in series [1] is above 30 min. Also, the Papp in the series “PAMPA permeability” amounted to 1560 ×10⁻⁶ cm/s. Also, the EC50 in series [2] is 119 nM. The compound also came in with a solubility in “Solubility pH 7.4” above 42 µg/mL.

As for `Cn1c(=N)n(-c2cnc(N3CCNCC3)c(C#N)c2)c2c3cc(-c4ccc(Cl)cc4)ccc3ncc21` [Compound 48, 5-(8-(4-chlorophenyl)-2-imino-3-methyl-2,3-dihydro-1H-imidazo[4,5-c]quinolin-1-yl)-2-(piperazin-1-yl)nicotinonitrile], in series [1], the half-life was above 30 min. In the series “PAMPA permeability”, the Papp worked out at 30.5 ×10⁻⁶ cm/s. Besides, the EC50 in series [2] was 125 nM. Also, in the series “Solubility pH 7.4”, the solubility is below 1 µg/mL.

In the case of `Cn1c(=N)n(-c2ccc(N3CCNCC3)c(C#N)c2)c2c3cc(-c4ccc(Cl)cc4)ccc3ncc21` [Compound 49, 5-(8-(4-chlorophenyl)-2-imino-3-methyl-2,3-dihydro-1H-imidazo[4,5-c]quinolin-1-yl)-2-(piperazin-1-yl)benzonitrile], the half-life in series [1] was above 30 min. Moreover, the Papp in the series “PAMPA permeability” stood at 4.9 ×10⁻⁶ cm/s. Also, the EC50 in series [2] is 58.2 nM. Besides, in “Solubility pH 7.4”, the concentration in solution (solubility) was 1 µg/mL (≈ 2.02 µM).

On to `Cn1c(=N)n(-c2ccc(N3CCOCC3)c(C#N)c2)c2c3cc(-c4ccc(Cl)cc4)ccc3ncc21` [Compound 51, 5-(8-(4-chlorophenyl)-2-imino-3-methyl-2,3-dihydro-1H-imidazo[4,5-c]quinolin-1-yl)-2-morpholinobenzonitrile], for which the half-life in series [1] is above 30 min. In the series “PAMPA permeability”, this compound returned a Papp of 81.1 ×10⁻⁶ cm/s. In series [2], the EC50 is 186 nM. Moreover, in the series “Solubility pH 7.4”, the solubility is below 1 µg/mL.

`Cc1ccc(C#N)cc1-n1c(=N)n(C)c2cnc3ccc(-c4ncc(Cl)cn4)cc3c21` [Compound 52, 3-(8-(5-chloropyrimidin-2-yl)-2-imino-3-methyl-2,3-dihydro-1H-imidazo[4,5-c]quinolin-1-yl)-4-methylbenzonitrile]: the half-life in series [1] is above 30 min. In the series “PAMPA permeability”, the Papp is 1430 ×10⁻⁶ cm/s. For the same compound, the EC50 in series [2] came out at 444 nM. Moreover, the solubility in the series “Solubility pH 7.4” is above 42 µg/mL.

With `COc1ccc(C#N)cc1-n1c(=N)n(C)c2cnc3ccc(-c4ccc(Cl)cc4)cc3c21` [Compound 53, 3-(8-(4-chlorophenyl)-2-imino-3-methyl-2,3-dihydro-1H-imidazo[4,5-c]quinolin-1-yl)-4-methoxybenzonitrile], the half-life in series [1] is above 30 min. Further, the Papp in “PAMPA permeability” amounted to 850 ×10⁻⁶ cm/s. The EC50 in series [2] was 120 nM. In the series “Solubility pH 7.4”, this compound gave a solubility of 12.2 µg/mL (≈ 27.7 µM).

As for `Cc1ccc(C#N)cc1-n1/c(=N/C(N)=O)n(C)c2cnc3ccc(-c4ccc(F)cc4)cc3c21` [Compound 55, (E)-1-(1-(5-cyano-2-methylphenyl)-8-(4-fluorophenyl)-3-methyl-1,3-dihydro-2H-imidazo[4,5-c]quinolin-2-ylidene)urea], the half-life in series [1] was above 30 min. In the series “PAMPA permeability”, this compound registered a Papp of 466 ×10⁻⁶ cm/s. Further, the EC50 in series [2] is 95.1 nM. Further, in the series “Solubility pH 7.4”, the concentration in solution (solubility) came to 1.3 µg/mL (≈ 2.89 µM).

For the compound `Cc1ccc(C#N)cc1-n1/c(=N/C(=N)N)n(C)c2cnc3ccc(-c4ccc(F)cc4)cc3c21` [Compound 56, (E)-1-(1-(5-cyano-2-methylphenyl)-8-(4-fluorophenyl)-3-methyl-1,3-dihydro-2H-imidazo[4,5-c]quinolin-2-ylidene)guanidine], the half-life in series [1] was above 30 min. The Papp in “PAMPA permeability” was 1.7 ×10⁻⁶ cm/s. The EC50 in series [2] was found to be 1460 nM. In “Solubility pH 7.4”, this compound yielded a solubility above 44 µg/mL.

With `Cn1c(=N)n(C2CC(N3CCOCC3)C2)c2c3cc(-c4ccc(Cl)cc4)ccc3ncc21` (stereo not shown) [Compound 58, 8-(4-chlorophenyl)-3-methyl-1-(3-morpholinocyclobutyl)-1,3-dihydro-2H-imidazo[4,5-c]quinolin-2-imine], the half-life in series [1] was above 30 min. This compound yielded a Papp in “PAMPA permeability” of 816 ×10⁻⁶ cm/s. The EC50 in series [2] was 2670 nM. The compound also displayed a solubility in “Solubility pH 7.4” above 44 µg/mL.

Turning to `Cc1ccc(C#N)cc1-n1c(=N)n(C)c2cnc3ccc(C4=CCN(C)C4)cc3c21` [Compound 60, 3-(2-imino-3-methyl-8-(1-methyl-2,5-dihydro-1H-pyrrol-3-yl)-2,3-dihydro-1H-imidazo[4,5-c]quinolin-1-yl)-4-methylbenzonitrile], the half-life in series [1] was above 30 min. For the same compound, in “PAMPA permeability”, the Papp amounted to 2 ×10⁻⁶ cm/s. Also, in series [2], the EC50 worked out at 481 nM. For the same compound, the solubility in the series “Solubility pH 7.4” is above 39 µg/mL.

Regarding `Cn1c(=N)n(-c2ccc(C(=O)NC3CC3)cc2)c2c3cc(-c4ccc(Cl)cc4)ccc3ncc21` [Compound 65, 4-(8-(4-chlorophenyl)-2-imino-3-methyl-2,3-dihydro-1H-imidazo[4,5-c]quinolin-1-yl)-N-cyclopropylbenzamide], the half-life in series [1] was above 30 min. The Papp in the series “PAMPA permeability” is 10.2 ×10⁻⁶ cm/s. In addition, in series [2], the EC50 amounted to 580 nM. In the series “Solubility pH 7.4”, the solubility worked out at 6.1 µg/mL (≈ 13 µM).

For the compound `CNCc1cccc(-n2c(=N)n(C)c3cnc4ccc(-c5ccc(Cl)cc5)cc4c32)c1` [Compound 67, 1-(3-(8-(4-chlorophenyl)-2-imino-3-methy-2,3-dihydro-H-imidazo[4,5-c]quinolin-1-yl)phenyl)-N-methylmethanamine], the half-life in series [1] is above 30 min. The Papp in the series “PAMPA permeability” worked out at 48.1 ×10⁻⁶ cm/s. The EC50 in series [2] is 2990 nM. The same compound displayed a solubility in “Solubility pH 7.4” above 42 µg/mL.

For `Cn1c(=N)n(-c2ccccc2C#N)c2c3cc(-c4ccc(Cl)cc4)ccc3ncc21` [Compound 68, 2-(8-(4-chlorophenyl)-2-imino-3-methyl-2,3-dihydro-1H-imidazo[4,5-c]quinolin-1-yl)benzonitrile], the half-life in series [1] was above 30 min. In the series “PAMPA permeability”, this compound came in with a Papp of 142 ×10⁻⁶ cm/s. Further, the EC50 in series [2] came to 1450 nM. The same compound registered a solubility in “Solubility pH 7.4” above 41 µg/mL.

With `Cn1c(=N)n(-c2cccc(N3CCNCC3)c2)c2c3cc(-c4ccc(Cl)cc4)ccc3ncc21` [Compound 76, 8-(4-chlorophenyl)-3-methyl-1-(3-(piperazin-1-yl)phenyl)-1,3-dihydro-2H-imidazo[4,5-c]quinolin-2-imine], in series [1], the half-life was above 30 min. In “PAMPA permeability”, this compound came in with a Papp of 28.3 ×10⁻⁶ cm/s. Also, the EC50 in series [2] stood at 802 nM. The same compound returned a solubility in the series “Solubility pH 7.4” above 46 µg/mL.

Turning to `Cn1c(=N)n(-c2cccc(F)c2)c2c3cc(-c4ccc(Cl)cc4)ccc3ncc21` [Compound 78, 8-(4-chlorophenyl)-1-(3-fluorophenyl)-3-methyl-1,3-dihydro-2H-imidazo[4,5-c]quinolin-2-imine], in series [1], the half-life is above 30 min. The Papp in “PAMPA permeability” stood at 629 ×10⁻⁶ cm/s. Besides, in series [2], the EC50 was 309 nM. The same compound returned a solubility in the series “Solubility pH 7.4” below 1 µg/mL.

With `Cn1c(=N)n(-c2cccc(O)c2)c2c3cc(-c4ccc(Cl)cc4)ccc3ncc21` [Compound 79, 3-(8-(4-chlorophenyl)-2-imino-3-methyl-2,3-dihydro-1H-imidazo[4,5-c]quinolin-1-yl)phenol], in series [1], the half-life is above 30 min. Further, in “PAMPA permeability”, the Papp is 42 ×10⁻⁶ cm/s. Besides, the EC50 in series [2] is 1420 nM. The compound further registered a solubility in the series “Solubility pH 7.4” of 9.7 µg/mL (≈ 24.2 µM).

As to `Cn1c(=N)n(-c2cccc(CN3CCNCC3)c2)c2c3cc(-c4ccc(Cl)cc4)ccc3ncc21` [Compound 85, 8-(4-chlorophenyl)-3-methyl-1-(3-(piperazin-1-ylmethyl)phenyl)-1,3-dihydro-2H-imidazo[4,5-c]quinolin-2-imine], the half-life in series [1] was above 30 min. Also, the apparent permeability (Papp) in the series “PAMPA permeability” turned out to be 11.2 ×10⁻⁶ cm/s. Further, in series [2], the EC50 stood at 702 nM. This compound gave a solubility in “Solubility pH 7.4” above 48 µg/mL.

Turning to `Cc1ccc(C#N)cc1-n1c(=N)n(C)c2cnc3ccc(-c4ccccc4O)cc3c21` [Compound 86, 3-(8-(2-hydroxyphenyl)-2-imino-3-methyl-2,3-dihydro-1H-imidazo[4,5-c]quinolin-1-yl)-4-methylbenzonitrile], the half-life in series [1] is above 30 min. In the series “PAMPA permeability”, this compound displayed a Papp of 7.9 ×10⁻⁶ cm/s. For the same compound, the EC50 in series [2] was determined as 696 nM. Besides, in the series “Solubility pH 7.4”, the solubility was above 40 µg/mL.

Regarding `COC(=O)/N=c1\n(C)c2cnc3ccc(-c4ccc(Cl)cc4)cc3c2n1-c1cc(C#N)ccc1C` [Compound 87, methyl (E)-(8-(4-chlorophenyl)-1-(5-cyano-2-methylphenyl)-3-methyl-1,3-dihydro-2H-imidazo[4,5-c]quinolin-2-ylidene)carbamate], the half-life in series [1] was above 30 min. In “PAMPA permeability”, this compound registered a Papp of 95.6 ×10⁻⁶ cm/s. Further, the 50% effective concentration (EC50) in series [2] came to 57.5 nM. Moreover, in “Solubility pH 7.4”, the solubility was below 1 µg/mL.
